How the values were obtained:
[1] = system: Hepatitis C virus; assay: Antiviral activity against HCV assessed as inhibition of viral RNA replication in Huh7 cells; format: functional, organism-based, Hepacivirus hominis; details: Huh-7
[2] = Cytotoxicity in human Huh7 cells by XTT assay; format: cell-based, Huh-7

Row | SMILES | EC50 [1] [µM] | CC50 [2] [µM]
1 | CON(C)C(=O)CC[C@H]1O[C@@H](n2cnc3c(N)ncnc32)C[C@@H]1O | > 200 | 
2 | O=C(CC[C@H]1O[C@@H](n2cnc3c(Cl)ncnc32)C[C@@H]1O)c1ccccc1 | 15.1 | 76.3
3 | COC(=O)CC[C@H]1O[C@@H](n2cnc3c(Cl)ncnc32)C[C@@H]1O | 32.9 | > 200
4 | COC(=O)CC[C@H]1O[C@@H](n2cnc3c(N)ncnc32)C[C@@H]1O | > 200 | 

The next lines start with results.

Row | EC50 [1] [µM] | SMILES | CC50 [2] [µM]
5 | > 200 | Nc1ncnc2c1ncn2[C@H]1C[C@H](O)[C@@H](CCC(=O)c2ccccc2)O1 | 
6 | 40.4 | CON(C)C(=O)CC[C@H]1O[C@@H](n2cnc3c(Cl)ncnc32)C[C@@H]1O | > 200

— ChEMBL document CHEMBL1155927, “Synthesis and evaluation of 5'-modified 2'-deoxyadenosine analogues as anti-hepatitis C virus agents” (Bioorg Med Chem Lett, 2008)
